Laboratory results taken from patent US20040009933A1, “Fluorescent nitrogenous base and nucleosides incorporating same” (Glen Research Corporation, priority 2002, published 2004).
Entries after “also recorded” stand apart in the source; their conditions may differ. [pyrroloC] = pyrrolo-2'-deoxycytidine (fluorescent C analogue)

Legend:
polymerases = assay: Cycle sequencing of PCR fragments made with pyrrolo-dC substituted primer; type: biochemical; details: C in sense strand product, G in antisense strand product
Excerpt: A series of tests was designed to determine if a pyrrolo-dC residue coded as dC for a dG. In this experiment a 100× diluted aliquot of the ˜500 nucleotide insert generated by the control T7 and Sp6 primers was further amplified using a biotinylated Sp6 primer and either a control 42 base M13-T7 primer or one with four pyrrolo-dC substitutions in the T7 sequence. The PCR product was captured on streptavidin beads, excess primers were removed by washing, and the suspension was divided into two portions. One reaction (the antisense strand) was sequenced using an M13 forward primer (using ABI dRhodamine chemistry); the other was sequenced (carried out using Beckman dye terminator chemistry) by using Sp6, after releasing the sense strand by heat denaturation of the immobilized PCR fragment.
Sequencing reactions (in duplicate) were carried out with PCR fragments to determine if pyrrolo-dC substitutes for dC. PCR fragments were generated by using, as template, a 100-fold dilution of the product of T7/bio-Sp6 reaction (similar to lane 5 above) and a primer pair of biotinylated Sp6 and the M13F-T7 (or its pyrrolo-dC-substituted homolog). The PCR fragment from this amplification was purified by streptavidin beads to remove excess primers and the suspension divided into two portions. […] Thus, under cycle sequencing conditions, the pyrrolo-dC residue is read as a dC.

AmpiTaq DNA polymerase = molecular target: T1, AmpiTaq DNA polymerase (Thermus aquaticus, UniProt P19821); assay: PCR and sequencing with pyrrolo-dCTP replacing dCTP; type: biochemical; details: dye-terminator cycle sequencing of PCR product
T1 construct: purchased Applied Biosystems
Excerpt: The triphosphate of pyrrolo-dC (pyrrolo-dCTP) was synthesized and compared with dCTP for its ability to be recognized by polymerases and be incorporated as a dC into polymerase generated products. Nucleotide-triphosphate mixes containing either dCTP or pyrrolo-dCTP were used in amplification reactions similar to the ones above and the product analyzed by acrylamide gel.
The PCR and sequencing experiments in Example 15 were repeated to determine if polymerases incorporated pyrrolo-dCTP as efficiently as dCTP (FIGS. 7 & 8). Purified plasmid DNA with 500-600 bp inserts were amplified in a standard 25 μl PCR reaction. One of the primers was biotinylated to facilitate the post-reaction cleanup of the PCR product. AmpiTaq DNA polymerase (1.25 Units, Applied Biosystems) was used as enzyme with 200 μM final concentration of each dNTP. In the pyrrolo-dCTP samples the dCTP was replaced with 200 μM pyrrolo-dCTP. Following the PCR reaction (55° C. annealing for 20 sec, 72° C. extension for 45 sec, 30 cycles) an aliquot of the reaction was subjected to agarose gel electrophoresis to verify the size and quality of the product. […] An aliquot of the purified product, still attached to the magnetic beads, was sequenced in a standard fluorescent dye-terminator cycle sequencing reaction and analyzed on a Beckman CEQ2000XL DNA sequencer.

[1] = system: otherwise duplex hybrid, mismatched base adenosine; details: mismatched base is adenosine; cited from earlier work
T7 RNA Polymerase = T7 RNA Polymerase (Escherichia phage T7, UniProt P00573); details: transcription bubble in elongation complexes; cited from earlier work
[2] = Spectral properties of pyrrolo-dC (extinction coefficients, fluorescence quantum yield); type: physicochemical; details: for QY (quantum yield): relative to quinine sulfate in O.5 M H2SO4
Excerpt: The spectral properties of pyrrolo-dC, coupled with its unique base-pairing ability, make this fluorescent analog extremely valuable in probing DNA structure. When the pyrrolo-dC is base-paired, its fluorescence can be reduced or quenched through what is most likely base stacking interactions (see Table I).

[3] = system: plasmid 600-nucleotide insert; assay: PCR assay: ability of pyrrolo-dC substituted T7 primers to amplify a plasmid insert; type: biochemical; details: primer dilution 4, 1.3, 0.4, 0.15 and 0.05 pmol, FIG. 4
Procedure: A series of tests were performed to test the ability of the T7 primers synthesized above to function in biological assays. In the first series of tests each of the T7 primers was evaluated in a PCR assay for their ability to amplify a plasmid insert. In the first experiment either the control or one of the experimental T7 forward primers, with one to four pyrrolo-dC substitutions, and an Sp6 reverse primer were tested for their ability to amplify a plasmid 600-nucleotide insert using supramaximal primer concentrations and the PCR products analyzed on an acrylamide gel. The sequences of the T7 forward primers are as follows: 5′-TAA TAC GAX TCA CTA TAG G-3′ (SEQ ID NO.: 6); 5′-TAA TAC GAX TXA CTA TAG G-3′ (SEQ ID NO.: 7); 5′-TAA TAX GAX TXA CTA TAG G-3′ (SEQ ID NO.: 8); 5′-TAA TAX GAX TXA XTA TAG G-3′ (SEQ ID NO.: 9); (control) 5′-TAA TAC GAC TCA CTA TAG G-3′ (SEQ ID NO.: 10), where X=pyrrolo-dC. Analysis of the stained gel was consistent with no differences in either the mobility or intensity of the stained bands corresponding to the 600-nucleotide PCR product generated by the control or experimental T7 primers.
The control and experimental T7 primers were next compared in another experiment using limiting concentrations of each of the T7 primers (1.3, 0.4, 0.15 and 0.05 pmole per reaction) and excess Sp6 primer. […]

[4] = system: polymerases Taq, Vent, Pfu; assay: PCR with different polymerases using T7 or T7-4 pyrrolo-dC primer; type: biochemical; details: biotinylated Sp6 reverse primer, ~500 nucleotide insert, Vent lower efficiency for both primers
Excerpt: The control and experimental T7 primers were next compared in another experiment using limiting concentrations of each of the T7 primers (1.3, 0.4, 0.15 and 0.05 pmole per reaction) and excess Sp6 primer. […] Finally the control and T7 primer containing four pyrrolo-dC substitutions were compared in their ability to be recognized by a variety of polymerases, Taq from ABI, Vent from New England Biolabs and Pfu from Stratagene. In this case a biotinylated Sp6 primer was used as the reverse primer in the amplification reaction of a plasmid containing an approximately 500 nucleotide insert.
Experiments were carried out to examine the effect of substituted pyrrolo-dC primers on the activity of several polymerases. Three experiments were carried out to examine the ability of different polymerases (Taq, Vent, Pfu) to use the T7 or T7-4 pyrrolo-dC primer in PCR; the other primer in the pair was biotinylated Sp6. […] In FIG. 6, lane 1 is standards, lane 2 is T7-4 pyrrolo-dC primer with Taq (ABI), lane 3 is T7-4 pyrrolo-dC primer with Vent (NEB), lane 4 is T7-4 pyrrolo-dC primer with Pfu (Stratagene), lane 5 is T7 primer with Taq (ABI), lane 6 is T7 primer with Vent (NEB), lane 7 is T7 primer with Pfu (Stratagene), and lane 8 is standards.

[5] = system: complementary strands containing each of the four natural deoxyribonucleotide bases opposite pyrrolo-dC; assay: Hybridization specificity: melting temperature (Tm) of 19mer oligonucleotide containing a single pyrrolo-dC; type: binding
Procedure: The hybridization specificity of pyrrolo-dC was evaluated by determining the melting temperature (Tm) of a 19mer oligonucleotide with the sequence 5′-GCC TAA CTT CXG GAG ATG T-3′ (SEQ ID NO.: 1), where X is Pyrrolo-dC which contains a single pyrrolo-dC. This oligonucleotide was annealed to complementary strands containing each of the four natural deoxyribonucleotide bases opposite it. Hybridization was best with a strand containing dG opposite pyrrolo-dC and decreased in the order dG>dT>dA>dC (melting temperature Tm=65, 56, 55 and 52° C. respectively). The effect of multiple incorporations was next evaluated by synthesizing a T7 universal primer where dC was replaced with zero to four pyrrolo-dC residues. All five oligonucleotides had the same Tm as that of the control (57° C.) when hybridized with an oligonucleotide complementary to the T7 primer regardless of the number of pyrrolo-dC/dC substitutions.

T1 sequence (P19821 whole entry): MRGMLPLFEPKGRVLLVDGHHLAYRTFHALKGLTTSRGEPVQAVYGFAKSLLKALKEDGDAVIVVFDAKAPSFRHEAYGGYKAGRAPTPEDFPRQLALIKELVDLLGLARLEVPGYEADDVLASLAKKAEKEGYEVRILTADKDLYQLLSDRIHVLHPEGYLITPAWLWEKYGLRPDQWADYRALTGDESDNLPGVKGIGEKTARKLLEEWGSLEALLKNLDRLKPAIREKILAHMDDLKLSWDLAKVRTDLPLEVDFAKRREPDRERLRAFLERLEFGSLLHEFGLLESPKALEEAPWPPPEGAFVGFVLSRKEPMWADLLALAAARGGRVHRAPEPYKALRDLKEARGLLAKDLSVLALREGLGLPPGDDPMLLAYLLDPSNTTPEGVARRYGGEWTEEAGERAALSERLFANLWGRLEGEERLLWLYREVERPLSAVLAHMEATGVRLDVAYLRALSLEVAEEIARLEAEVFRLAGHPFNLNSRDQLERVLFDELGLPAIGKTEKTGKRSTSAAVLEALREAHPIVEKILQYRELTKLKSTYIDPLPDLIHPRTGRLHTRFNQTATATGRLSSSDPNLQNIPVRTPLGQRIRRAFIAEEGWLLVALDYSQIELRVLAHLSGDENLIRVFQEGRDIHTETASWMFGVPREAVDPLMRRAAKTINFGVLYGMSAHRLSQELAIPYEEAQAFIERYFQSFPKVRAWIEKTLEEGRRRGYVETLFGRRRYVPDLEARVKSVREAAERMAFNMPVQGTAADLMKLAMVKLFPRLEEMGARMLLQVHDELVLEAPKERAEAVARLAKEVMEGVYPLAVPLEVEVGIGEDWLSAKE
T7 RNA Polymerase, sequence (P00573 whole entry): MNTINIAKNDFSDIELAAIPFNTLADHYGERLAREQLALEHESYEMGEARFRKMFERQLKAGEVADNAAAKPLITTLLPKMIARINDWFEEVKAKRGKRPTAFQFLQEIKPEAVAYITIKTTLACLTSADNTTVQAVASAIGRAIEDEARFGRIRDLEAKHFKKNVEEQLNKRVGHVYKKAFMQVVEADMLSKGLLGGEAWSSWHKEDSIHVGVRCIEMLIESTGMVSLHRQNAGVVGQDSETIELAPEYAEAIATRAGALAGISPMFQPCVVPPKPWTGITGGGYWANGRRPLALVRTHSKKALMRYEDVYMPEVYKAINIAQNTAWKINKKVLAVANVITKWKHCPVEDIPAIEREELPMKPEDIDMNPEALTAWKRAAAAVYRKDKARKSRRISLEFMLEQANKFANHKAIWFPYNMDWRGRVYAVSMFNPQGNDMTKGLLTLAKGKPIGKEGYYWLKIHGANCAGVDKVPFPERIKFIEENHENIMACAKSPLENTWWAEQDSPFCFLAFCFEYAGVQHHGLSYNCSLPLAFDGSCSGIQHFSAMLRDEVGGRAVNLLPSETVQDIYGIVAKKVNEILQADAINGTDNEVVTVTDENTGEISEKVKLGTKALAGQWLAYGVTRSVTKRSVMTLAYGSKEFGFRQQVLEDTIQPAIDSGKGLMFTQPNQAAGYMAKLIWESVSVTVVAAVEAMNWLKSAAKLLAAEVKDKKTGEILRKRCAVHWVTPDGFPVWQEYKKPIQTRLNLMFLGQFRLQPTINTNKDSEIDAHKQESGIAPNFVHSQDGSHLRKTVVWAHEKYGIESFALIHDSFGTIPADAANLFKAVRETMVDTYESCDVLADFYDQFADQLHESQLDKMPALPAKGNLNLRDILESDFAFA

Cc1cc2cn([C@H]3C[C@H](O)[C@@H](CO)O3)c(=O)nc2[nH]1 [Pyrrolo-dC, 6-Methyl-3-(β-D-2-deoxyribofuranosyl)pyrrolo[2,3-d]pyrimidin-2-one]
how the residue is read under cycle sequencing conditions (polymerases): “read” as a dC; also recorded: read as a dC
sequence of PCR product generated with the triphosphate (AmpiTaq DNA polymerase): specifically incorporated as a “dC” opposite a dG residue
fluorescence when mismatched in an otherwise duplex hybrid [1]: higher than the single-stranded species
increase in fluorescence as the polymerase induces melting (T7 RNA Polymerase): two-fold
E260 [2]: 4,000 LImol cm
E345 [2]: 3,700 L/mol cm
QY (quantum yield) ([2]; double-stranded): 0.02
QY (quantum yield) ([2]; single-stranded): 0.07

SEQ ID NO.:9: T7 forward primer 5′-TAA TAX GAX TXA XTA TAG G-3′, X=pyrrolo-dC; four substitutions (TAATACGACTCACTATAGG; DNA, [pyrroloC] at 6, 9, 11, 13, backbone not given here)
primer amount at which product formation sharply decreases [3]: around 0.15 pmol
ability to be used by polymerases in PCR versus unsubstituted T7 primer [4]: equivalence

SEQ ID NO.: 1: 19mer oligonucleotide 5′-GCC TAA CTT CXG GAG ATG T-3′, where X is Pyrrolo-dC
melting temperature Tm ([5]; dA opposite pyrrolo-dC): 55 °C
melting temperature Tm ([5]; dC opposite pyrrolo-dC): 52 °C
melting temperature Tm ([5]; dG opposite pyrrolo-dC): 65 °C
melting temperature Tm ([5]; dT opposite pyrrolo-dC): 56 °C
